Assay results published in patent publication US20210322352A1, “COMPOSITION FOR IMPROVING ENDURANCE AND METHOD OF IMPROVING ENDURANCE USING THE SAME” (PHARMA FOODS INTERNATIONAL CO., LTD., priority 2020, published 2021).

Experiments:
[1] = tested on: glycogen in a skeletal muscle (gastrocnemius muscle); test: Measurement of the amount of glycogen in a skeletal muscle; assay type: in vivo, mouse; conditions: 0.5% GABA diet
Description: (§1) Specifically, 10 week-old male ICR mice are classified into the group in which normal food is freely ingested and training is not carried out (control group), the group in which a diet of normal food added with 0.5% of GABA (1.8 g for human) is freely ingested and training is not carried out (GABA group), the group in which normal food is freely ingested and training is carried out (training group) and the group in which a diet of normal food added with 0.5% of GABA (1.8 g for human) is freely ingested and training is carried out (GABA training group) (9 mice in each group). During the test period, the above classified mice freely ingested about 2.7 to about 5.0 g/day of normal food or GABA-comprising food per one individual. Regarding the training group and the GABA training group, running was forced for 60 minutes on a schedule of 3 times a week (interval of 1 day or 2 days). This training was continued until 3 days after termination of the below-mentioned third running test. In the training, a treadmill for small animals (Meiquest Ltd.) was used with the gradient of 0 degree to force running at 25 m/minute running speed. Since a mouse will run at the speed of about 6 to 24 m/minute without a load, the running speed of 25 m/minute is a little faster than normal, i.e., low to moderate intensity.

male ICR mice = test: Measurement of limit running time using a treadmill; assay type: in vivo, mouse; conditions: GABA training group vs training group, diet with 0.5% GABA
Description: as §1

phosphorylated AKT/AKT = test: Phosphorylated AKT/AKT ratio in a skeletal muscle (western blotting); assay type: in vivo, mouse; conditions: gastrocnemius muscle
Description: as §1

AMPK protein = test: Relative expression of AMPK protein in a skeletal muscle (western blotting); assay type: in vivo, mouse; conditions: gastrocnemius muscle
Description: as §1, with “[…] The amount of protein was quantified in accordance with the method of the TaKaRa BCA Protein Assay Kit (TAKARA BIO INC.) using bovine serum albumin as” for “Since”, “standard protein. […]” for “mouse will run at the speed of about 6 to 24 m/minute without a load, the running speed of 25 m/minute is a little faster than normal, i.e., low to moderate intensity.”

myosin 2a protein = test: Relative expression of myosin 2a in a skeletal muscle (soleus muscle), western blotting; assay type: in vivo, mouse
Description: (§2) Specifically, 10 week-old male ICR mice are classified into the group in which normal food is freely ingested and training is not carried out (control group), the group in which a diet of normal food added with 0.5% of GABA (1.8 g for human) is freely ingested and training is not carried out (GABA group), the group in which normal food is freely ingested and training is carried out (training group) and the group in which a diet of normal food added with 0.5% of GABA (1.8 g for human) is freely ingested and training is carried out (GABA training group) (9 mice in each group).
(§3) During the test period, the above classified mice freely ingested about 2.7 to about 5.0 g/day of normal food or GABA-comprising food per one individual. Regarding the training group and the GABA training group, running was forced for 60 minutes on a schedule of 3 times a week (interval of 1 day or 2 days). This training was continued until 3 days after termination of the below-mentioned third running test. […]
Two days after termination of the final training, a skeletal muscle (soleus muscle) tissue of mouse was grinded with a biomasher on ice. […] The protein concentration of the protein extraction liquid was measured with a protein assay BCA kit and dilution was carried out with a RIPA buffer so that the protein concentration of the protein extraction liquid would be 4 mg/ml. […]

mitochondrial DNA = test: Measurement of the amount of mitochondrial DNA in a skeletal muscle (real-time PCR); assay type: in vivo, mouse; conditions: GABA training group vs control group, GABA group and training group
Description: as §2
as §3, with “days).” for “days). This training was continued until 3 days after termination of the below-mentioned third running test.”
20 to 50 mg of tissue sample was taken out to a 2 mL plastic tube to extract DNA in accordance with the genome DNA purification protocol described in NucleoSpin® DNARapidLyse (TAKARA BIO INC.). The amount of relative expression of the amount of mitochondria with respect to mouse nuclear DNA was quantified with the real-time PCR method using Thermal Cycler Dice® Real TimeSystem II (TAKARA BIO INC.) and set as mitochondrial DNA amount.

skeletal muscle = conditions: GABA in addition to whey protein vs whey protein alone; in training; J Clin Med Res. 2019; 11(6):428-434; cited from earlier work
PGC-1α protein = test: Relative expression of PGC-1α protein in a skeletal muscle (western blotting); assay type: in vivo, mouse; conditions: gastrocnemius muscle
Description: as §1, with “[…] The amount of protein was quantified in accordance with the method of the TaKaRa BCA Protein Assay Kit (TAKARA BIO INC.) using bovine serum albumin as” for “Since”, “standard protein. […]” for “mouse will run at the speed of about 6 to 24 m/minute without a load, the running speed of 25 m/minute is a little faster than normal, i.e., low to moderate intensity.”

insulin in plasma = test: Measurement of the amount of insulin in plasma; assay type: in vivo, mouse; conditions: 0.5% GABA diet
Description: as §2
During the test period, the above classified mice freely ingested about 2.7 to about 5.0 g/day of normal food or GABA-comprising food per one individual. Regarding the training group and the GABA training group, running was forced for 60 minutes on a schedule of 3 times a week (interval of 1 day or 2 days). This training was continued until 3 days after termination of the below-mentioned third running test. In the training, a treadmill for small animals (Meiquest Ltd.) was used with the gradient of 0 degree to force running at 25 m/minute running speed. Since a mouse will run at the speed of about 6 to 24 m/minute without a load, the running speed of 25 m/minute is a little faster than normal, i.e., low to moderate intensity.
2 days after termination of the final training, blood of a mouse in a group is collected to measure the amount of insulin in plasma. The measurement of the amount of insulin in plasma was carried out as described below using Lbis (registered trademark) Insulin-Mouse T (FUJIFILM Wako Shibayagi Corporation).
96 well plate for turning an antibody into a solid phase was prepared and washed 4 times with a cleaning liquid. 100 μL of biotin binding anti-insulin antibody was added thereto and stirred. […] 100 μL of 1M sulphuric acid solution was respectively added to stop the reaction, measure absorbance (OD 450 nm) and calculate the amount of insulin in plasma.

## NCCCC(=O)O [GABA, γ-aminobutyric acid]
[1]; GABA group vs control group, no training, P=0.09
  amount of glycogen in the gastrocnemius muscle: tendency of increase
[1]; GABA training group vs training group, P=0.04
  amount of glycogen in the gastrocnemius muscle: significantly increased
Male ICR mice; fourth week, P=0.14
  amount of increase of running time due to a training (running time to exhaustion): tendency to be enlarged
Male ICR mice; second week, P=0.04
  amount of increase of running time due to a training (running time to exhaustion): significantly enlarged
Phosphorylated AKT/AKT; GABA group vs control group
  phosphorylated AKT/total AKT ratio in a skeletal muscle: tendency to decrease
Phosphorylated AKT/AKT; GABA training group vs training group, P=0.0001
  phosphorylated AKT/total AKT ratio in a skeletal muscle: significantly decreased
AMPK protein; GABA training group vs control group, P=0.0008
  amount of expression of AMPK protein: increased
AMPK protein; GABA training group vs training group
  amount of expression of AMPK protein: increased more than the training group
Myosin 2a protein; GABA group vs control group and training group
  amount of expression of myosin 2a protein in a skeletal muscle (soleus muscle): tendency to increase
Myosin 2a protein; GABA training group vs the other 3 groups
  amount of expression of myosin 2a protein in a skeletal muscle (soleus muscle): significantly increased
Mitochondrial DNA
  mitochondrial DNA amount in a skeletal muscle: tendency of increase
Skeletal muscle
  amount of fat removed muscle: increases
  muscle hypertrophy: stimulates more muscle hypertrophy
PGC-1α protein; GABA training group vs training group, P=0.01
  amount of expression of PGC-1α protein in a skeletal muscle: significantly increased
PGC-1α protein; vs control group (group not given, presumably GABA group)
  amount of expression of PGC-1α protein in a skeletal muscle: tendency of increase
Insulin in plasma; GABA group vs control group, no training
  amount of insulin in plasma: decreased
Insulin in plasma; GABA training group vs control group
  amount of insulin in plasma: decreased
Insulin in plasma; GABA training group vs training group, P=0.07
  amount of insulin in plasma: decreased
